Experimental data reported in the CheMixHub viscosity set.
± gives the uncertainty stated by the source.

Test: xn = mol fraction of the nth substance listed

Cc1ncc[nH]1 + O
viscosity (298.15 K, 100 kPa, x1 = 0.0238): 1.151 ± 0.047 mPa·s | viscosity (298.15 K, 100 kPa, x1 = 0.0373): 1.312 ± 0.053 mPa·s | viscosity (298.15 K, 100 kPa, x1 = 0.052): 1.494 ± 0.061 mPa·s | viscosity (298.15 K, 100 kPa, x1 = 0.0682): 1.718 ± 0.07 mPa·s | viscosity (298.15 K, 100 kPa, x1 = 0.086): 1.971 ± 0.08 mPa·s | viscosity (303.15 K, 100 kPa, x1 = 0.0238): 1.02 ± 0.041 mPa·s | viscosity (303.15 K, 100 kPa, x1 = 0.0373): 1.16 ± 0.047 mPa·s | viscosity (303.15 K, 100 kPa, x1 = 0.052): 1.315 ± 0.053 mPa·s | viscosity (303.15 K, 100 kPa, x1 = 0.0682): 1.498 ± 0.061 mPa·s | viscosity (303.15 K, 100 kPa, x1 = 0.086): 1.707 ± 0.069 mPa·s | viscosity (313.15 K, 100 kPa, x1 = 0.0238): 0.838 ± 0.034 mPa·s | viscosity (313.15 K, 100 kPa, x1 = 0.0373): 0.933 ± 0.038 mPa·s | viscosity (313.15 K, 100 kPa, x1 = 0.052): 1.07 ± 0.044 mPa·s | viscosity (313.15 K, 100 kPa, x1 = 0.0682): 1.214 ± 0.049 mPa·s | viscosity (313.15 K, 100 kPa, x1 = 0.086): 1.379 ± 0.056 mPa·s | viscosity (323.15 K, 100 kPa, x1 = 0.0238): 0.696 ± 0.028 mPa·s | viscosity (323.15 K, 100 kPa, x1 = 0.0373): 0.767 ± 0.031 mPa·s | viscosity (323.15 K, 100 kPa, x1 = 0.052): 0.87 ± 0.035 mPa·s | viscosity (323.15 K, 100 kPa, x1 = 0.0682): 0.978 ± 0.04 mPa·s | viscosity (323.15 K, 100 kPa, x1 = 0.086): 1.1 ± 0.045 mPa·s

F.[F-].[Na+] + O
viscosity (298.15 K, 100 kPa, x1 = 0.003): 0.939 ± 0.028 mPa·s | viscosity (298.15 K, 100 kPa, x1 = 0.006): 0.9963 ± 0.03 mPa·s | viscosity (298.15 K, 100 kPa, x1 = 0.009): 1.068 ± 0.032 mPa·s | viscosity (323.15 K, 100 kPa, x1 = 0.003): 0.578 ± 0.017 mPa·s | viscosity (323.15 K, 100 kPa, x1 = 0.006): 0.61 ± 0.018 mPa·s | viscosity (323.15 K, 100 kPa, x1 = 0.009): 0.657 ± 0.02 mPa·s

NCC(=O)[O-].[Na+] + O
viscosity (298.15 K, 101 kPa, x1 = 0.01): 1.124 ± 0.031 mPa·s | viscosity (298.15 K, 101 kPa, x1 = 0.0194): 1.41 ± 0.039 mPa·s | viscosity (298.15 K, 101 kPa, x1 = 0.0289): 1.747 ± 0.049 mPa·s | viscosity (298.15 K, 101 kPa, x1 = 0.0371): 2.15 ± 0.06 mPa·s | viscosity (298.15 K, 101 kPa, x1 = 0.048): 2.82 ± 0.08 mPa·s | viscosity (308.15 K, 101 kPa, x1 = 0.01): 0.904 ± 0.025 mPa·s | viscosity (308.15 K, 101 kPa, x1 = 0.0194): 1.106 ± 0.031 mPa·s | viscosity (308.15 K, 101 kPa, x1 = 0.0289): 1.369 ± 0.038 mPa·s | viscosity (308.15 K, 101 kPa, x1 = 0.0371): 1.662 ± 0.046 mPa·s | viscosity (308.15 K, 101 kPa, x1 = 0.048): 2.13 ± 0.06 mPa·s | viscosity (323.15 K, 101 kPa, x1 = 0.01): 0.677 ± 0.019 mPa·s | viscosity (323.15 K, 101 kPa, x1 = 0.0194): 0.818 ± 0.023 mPa·s | viscosity (323.15 K, 101 kPa, x1 = 0.0289): 0.993 ± 0.028 mPa·s | viscosity (323.15 K, 101 kPa, x1 = 0.0371): 1.183 ± 0.033 mPa·s | viscosity (323.15 K, 101 kPa, x1 = 0.048): 1.479 ± 0.042 mPa·s

OCC(F)(F)F + O
viscosity (298 K, 101.3 kPa, x1 = 0.026): 1.152 ± 0.031 mPa·s | viscosity (298 K, 101.3 kPa, x1 = 0.0503): 1.358 ± 0.035 mPa·s | viscosity (298 K, 101.3 kPa, x1 = 0.075): 1.528 ± 0.038 mPa·s | viscosity (298 K, 101.3 kPa, x1 = 0.0984): 1.634 ± 0.04 mPa·s | viscosity (298 K, 101.3 kPa, x1 = 0.1984): 1.882 ± 0.042 mPa·s | viscosity (298 K, 101.3 kPa, x1 = 0.3016): 1.876 ± 0.038 mPa·s | viscosity (298 K, 101.3 kPa, x1 = 0.4012): 1.819 ± 0.034 mPa·s | viscosity (298 K, 101.3 kPa, x1 = 0.5015): 1.757 ± 0.03 mPa·s | viscosity (298 K, 101.3 kPa, x1 = 0.5993): 1.713 ± 0.026 mPa·s | viscosity (298 K, 101.3 kPa, x1 = 0.6501): 1.656 ± 0.024 mPa·s | viscosity (298 K, 101.3 kPa, x1 = 0.8029): 1.651 ± 0.02 mPa·s | viscosity (298 K, 101.3 kPa, x1 = 0.9024): 1.673 ± 0.018 mPa·s | viscosity (298.15 K, 100 kPa, x1 = 0.1022): 1.608 ± 0.05 mPa·s | viscosity (298.15 K, 100 kPa, x1 = 0.2084): 1.828 ± 0.054 mPa·s | viscosity (298.15 K, 100 kPa, x1 = 0.3227): 1.802 ± 0.05 mPa·s | viscosity (298.15 K, 100 kPa, x1 = 0.4087): 1.743 ± 0.046 mPa·s | viscosity (298.15 K, 100 kPa, x1 = 0.5727): 1.665 ± 0.041 mPa·s | viscosity (298.15 K, 100 kPa, x1 = 0.7111): 1.621 ± 0.038 mPa·s | viscosity (298.15 K, 100 kPa, x1 = 0.9104): 1.64 ± 0.036 mPa·s | viscosity (298.15 K, 101 kPa, x1 = 0.0196): 1.061 ± 0.009 mPa·s | viscosity (298.15 K, 101 kPa, x1 = 0.04313): 1.271 ± 0.012 mPa·s | viscosity (298.15 K, 101 kPa, x1 = 0.07168): 1.446 ± 0.016 mPa·s | viscosity (298.15 K, 101 kPa, x1 = 0.1072): 1.642 ± 0.021 mPa·s | viscosity (298.15 K, 101 kPa, x1 = 0.1525): 1.773 ± 0.026 mPa·s | viscosity (298.15 K, 101 kPa, x1 = 0.2128): 1.852 ± 0.031 mPa·s | viscosity (298.15 K, 101 kPa, x1 = 0.296): 1.865 ± 0.036 mPa·s | viscosity (298.15 K, 101 kPa, x1 = 0.4193): 1.782 ± 0.038 mPa·s | viscosity (298.15 K, 101 kPa, x1 = 0.6192): 1.667 ± 0.04 mPa·s | viscosity (303 K, 101.3 kPa, x1 = 0.026): 0.999 ± 0.027 mPa·s | viscosity (303 K, 101.3 kPa, x1 = 0.0503): 1.163 ± 0.03 mPa·s | viscosity (303 K, 101.3 kPa, x1 = 0.075): 1.312 ± 0.033 mPa·s | viscosity (303 K, 101.3 kPa, x1 = 0.0984): 1.395 ± 0.035 mPa·s | viscosity (303 K, 101.3 kPa, x1 = 0.1984): 1.588 ± 0.036 mPa·s | viscosity (303 K, 101.3 kPa, x1 = 0.3016): 1.609 ± 0.033 mPa·s | viscosity (303 K, 101.3 kPa, x1 = 0.4012): 1.566 ± 0.03 mPa·s | viscosity (303 K, 101.3 kPa, x1 = 0.5015): 1.523 ± 0.026 mPa·s | viscosity (303 K, 101.3 kPa, x1 = 0.5993): 1.492 ± 0.023 mPa·s | viscosity (303 K, 101.3 kPa, x1 = 0.6501): 1.45 ± 0.022 mPa·s | viscosity (303 K, 101.3 kPa, x1 = 0.8029): 1.444 ± 0.018 mPa·s | viscosity (303 K, 101.3 kPa, x1 = 0.9024): 1.468 ± 0.016 mPa·s | viscosity (308 K, 101.3 kPa, x1 = 0.026): 0.887 ± 0.024 mPa·s | viscosity (308 K, 101.3 kPa, x1 = 0.0503): 1.017 ± 0.027 mPa·s | viscosity (308 K, 101.3 kPa, x1 = 0.075): 1.138 ± 0.029 mPa·s | viscosity (308 K, 101.3 kPa, x1 = 0.0984): 1.214 ± 0.03 mPa·s | viscosity (308 K, 101.3 kPa, x1 = 0.1984): 1.398 ± 0.032 mPa·s | viscosity (308 K, 101.3 kPa, x1 = 0.3016): 1.406 ± 0.03 mPa·s | viscosity (308 K, 101.3 kPa, x1 = 0.4012): 1.375 ± 0.027 mPa·s | viscosity (308 K, 101.3 kPa, x1 = 0.5015): 1.338 ± 0.024 mPa·s | viscosity (308 K, 101.3 kPa, x1 = 0.5993): 1.305 ± 0.021 mPa·s | viscosity (308 K, 101.3 kPa, x1 = 0.6501): 1.284 ± 0.02 mPa·s | viscosity (308 K, 101.3 kPa, x1 = 0.8029): 1.278 ± 0.017 mPa·s | viscosity (308 K, 101.3 kPa, x1 = 0.9024): 1.296 ± 0.015 mPa·s | viscosity (313 K, 101.3 kPa, x1 = 0.026): 0.791 ± 0.022 mPa·s | viscosity (313 K, 101.3 kPa, x1 = 0.0503): 0.899 ± 0.024 mPa·s | viscosity (313 K, 101.3 kPa, x1 = 0.075): 1.002 ± 0.026 mPa·s | viscosity (313 K, 101.3 kPa, x1 = 0.0984): 1.065 ± 0.027 mPa·s | viscosity (313 K, 101.3 kPa, x1 = 0.1984): 1.223 ± 0.028 mPa·s | viscosity (313 K, 101.3 kPa, x1 = 0.3016): 1.235 ± 0.026 mPa·s | viscosity (313 K, 101.3 kPa, x1 = 0.4012): 1.211 ± 0.024 mPa·s | viscosity (313 K, 101.3 kPa, x1 = 0.5015): 1.179 ± 0.021 mPa·s | viscosity (313 K, 101.3 kPa, x1 = 0.5993): 1.159 ± 0.019 mPa·s | viscosity (313 K, 101.3 kPa, x1 = 0.6501): 1.145 ± 0.018 mPa·s | viscosity (313 K, 101.3 kPa, x1 = 0.8029): 1.136 ± 0.016 mPa·s | viscosity (313 K, 101.3 kPa, x1 = 0.9024): 1.152 ± 0.014 mPa·s | viscosity (323.15 K, 100 kPa, x1 = 0.1022): 0.85 ± 0.027 mPa·s | viscosity (323.15 K, 100 kPa, x1 = 0.2084): 0.944 ± 0.028 mPa·s | viscosity (323.15 K, 100 kPa, x1 = 0.3227): 0.949 ± 0.027 mPa·s | viscosity (323.15 K, 100 kPa, x1 = 0.4087): 0.94 ± 0.025 mPa·s | viscosity (323.15 K, 100 kPa, x1 = 0.5727): 0.911 ± 0.023 mPa·s | viscosity (323.15 K, 100 kPa, x1 = 0.7111): 0.912 ± 0.022 mPa·s | viscosity (323.15 K, 100 kPa, x1 = 0.9104): 0.935 ± 0.021 mPa·s

[Br-].[NH4+] + O
viscosity (298.15 K, 101 kPa, x1 = 0.0089): 0.8738 mPa·s | viscosity (298.15 K, 101 kPa, x1 = 0.0177): 0.8563 mPa·s | viscosity (298.15 K, 101 kPa, x1 = 0.0348): 0.8265 mPa·s
